Experimental data reported in US11077100B2, “Tetrahydroquinoline derivatives as P2X7 receptor antagonists” (RaQualia Pharma Inc., priority 2017, dated 2021).

How the values were obtained:
rat P2X7 = rat P2X7 (Rattus norvegicus (Rat), UniProt Q64663); assay: Rat P2X7 functional assay (Ca2+ influx, Fluo-4, FDSS); assay type: cell-based; settings: HEK293 cells stably expressing rat P2X7; BzATP final 10 microM; 7-point dose-response; read-out: Antagonistic activities with respect to the rat P2X7 receptor (IC50)
Outline: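 IC50 derived from 7-point dose-response in duplicate, measuring inhibition of BzATP-evoked (final 10 microM) intracellular Ca2+ increase by Fluo-4 fluorescence on FDSS. Rat P2X7-HEK293 cells were exposed to compound for 10 min in the dark beforehand.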

human P2X7 = human P2X7 (Homo sapiens (Human), UniProt Q99572); assay: Human P2X7 functional assay (Ca2+ influx, Fluo-4, FDSS); assay type: cell-based; settings: antagonistic activity with respect to the human P2X7 receptor; BzATP final concentration 80 microM
Outline: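 Ca2+ influx was triggered with BzATP (80 μM final) after a 10-min room-temperature compound preincubation and monitored with Fluo-4 (ex 480/em 540 nm) on FDSS. The cells were HEK293 stably carrying FLAG-tagged human P2X7. Duplicate-averaged 7-point dose-responses gave IC50s.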

human P2X7, sequence (Q99572 whole entry): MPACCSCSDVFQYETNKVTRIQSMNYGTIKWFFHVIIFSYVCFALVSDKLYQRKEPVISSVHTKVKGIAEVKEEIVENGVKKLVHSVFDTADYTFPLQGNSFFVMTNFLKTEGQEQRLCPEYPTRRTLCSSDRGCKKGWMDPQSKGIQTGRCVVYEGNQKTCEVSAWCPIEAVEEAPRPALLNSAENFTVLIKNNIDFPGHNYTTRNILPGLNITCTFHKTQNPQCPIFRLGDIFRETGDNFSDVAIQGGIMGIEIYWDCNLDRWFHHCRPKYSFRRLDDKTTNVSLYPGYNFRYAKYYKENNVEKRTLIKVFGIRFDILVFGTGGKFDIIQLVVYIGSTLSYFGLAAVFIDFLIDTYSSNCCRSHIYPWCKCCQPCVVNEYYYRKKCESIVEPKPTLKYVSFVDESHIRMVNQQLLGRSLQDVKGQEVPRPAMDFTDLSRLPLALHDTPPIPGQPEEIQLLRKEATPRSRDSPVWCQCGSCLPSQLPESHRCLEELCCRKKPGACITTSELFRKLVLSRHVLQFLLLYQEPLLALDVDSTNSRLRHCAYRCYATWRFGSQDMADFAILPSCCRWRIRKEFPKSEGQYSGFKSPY
rat P2X7, sequence (Q64663 whole entry): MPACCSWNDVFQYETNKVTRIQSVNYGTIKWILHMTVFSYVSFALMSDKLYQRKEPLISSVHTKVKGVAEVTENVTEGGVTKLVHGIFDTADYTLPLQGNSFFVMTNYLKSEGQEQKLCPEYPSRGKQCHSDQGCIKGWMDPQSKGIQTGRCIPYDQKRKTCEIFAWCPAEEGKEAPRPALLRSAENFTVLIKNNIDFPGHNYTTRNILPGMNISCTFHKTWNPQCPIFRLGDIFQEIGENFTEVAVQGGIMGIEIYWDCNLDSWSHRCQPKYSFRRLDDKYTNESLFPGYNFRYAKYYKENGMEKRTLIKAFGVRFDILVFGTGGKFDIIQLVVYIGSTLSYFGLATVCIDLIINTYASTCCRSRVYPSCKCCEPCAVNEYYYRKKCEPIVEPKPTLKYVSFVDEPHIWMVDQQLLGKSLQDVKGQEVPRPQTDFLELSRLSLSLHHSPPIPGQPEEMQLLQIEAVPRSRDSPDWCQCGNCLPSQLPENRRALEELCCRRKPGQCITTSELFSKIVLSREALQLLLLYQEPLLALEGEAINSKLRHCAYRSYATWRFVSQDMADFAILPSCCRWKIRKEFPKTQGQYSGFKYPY

SMILES	IC50 (rat P2X7)	IC50 (human P2X7)
O=C(NCc1cccc(F)c1C(F)(F)F)[C@]1(F)CC[C@H](O)c2ncccc21 [Example 178, (58,8S)-5-fluoro-N-(3-fluoro-2-(trifluoromethyl)benzyl)-8-hydroxy-5,6,7,8-tetrahydroquinoline-5-carboxamide]	< 1000 nM	< 50 nM
O=C(NCc1c(Cl)cccc1C(F)(F)F)[C@]1(F)CC[C@H](O)c2ncccc21 [Example 179, (5S,8S)-N-(2-chloro-6-(trifluoromethyl)benzyl)-5-fluoro-8-hydroxy-5,6,7,8-tetrahydroquinoline-5-carboxamide]	< 1000 nM	< 50 nM
O=C(NCc1c(F)cc(F)cc1F)[C@]1(F)CC[C@H](O)c2ncccc21 [Example 180, (5S,8S)-5-fluoro-8-hydroxy-N-(2,4,6-trifluorobenzyl)-5,6,7,8-tetrahydroquinoline-5-carboxamide]	< 1000 nM	< 50 nM
O=C(N[C@@H]1CCCc2ccccc21)[C@]1(F)CC[C@H](O)c2ncccc21 [Example 189, (5S,8S)-5-fluoro-8-hydroxy-N-((R)-1,2,3,4-tetrahydronaphthalen-1-yl)-5,6,7,8-tetrahydroquinoline 5-carboxamide]	< 1000 nM	< 50 nM
O=C(N[C@@H]1CCc2ccccc21)[C@]1(F)CC[C@H](O)c2ncccc21 [Example 196, (5S,8S)-N-((R)-2,3-dihydro-1H-inden-1-yl)-5-fluoro-8-hydroxy-5,6,7,8-tetrahydroquinoline-5-carboxamide]	< 1000 nM	< 50 nM
O=C(NCc1ccccc1C(F)(F)F)[C@]1(F)CC[C@H](O)c2ncccc21 [Example 199, (5S,8S)-5-fluoro-8-hydroxy-N-(2-(trifluoromethyl)benzyl)-5,6,7,8-tetrahydroquinoline-5-carboxamide]	< 1000 nM	50 to 100 nM
N#Cc1ccc(CNC(=O)[C@]2(F)CC[C@H](O)c3ncccc32)c(F)c1 [Example 201, (5S,8S)-N-(4-cyano-2-fluorobenzyl)-5-fluoro-8-hydroxy-5,6,7,8-tetrahydroquinoline-5-carboxamide]	< 1000 nM	50 to 100 nM
O=C(NCc1cccc(F)c1F)[C@]1(F)CC[C@H](O)c2ncccc21 [Example 208, (5S,8S)-N-(2,3-difluorobenzyl)-5-fluoro-8-hydroxy-5,6,7,8-tetrahydroquinoline-5-carboxamide]	< 1000 nM	101 to 300 nM
O=C(NCc1cc(F)cc(F)c1)[C@]1(F)CC[C@H](O)c2ncccc21 [Example 221, (5S,8S)-N-(3,5-difluorobenzyl)-5-fluoro-8-hydroxy-5,6,7,8-tetrahydroquinoline-5-carboxamide]	< 1000 nM	301 to 1000 nM
CC(NC(=O)[C@]1(F)CC[C@H](O)c2ncccc21)C12CC3CC(CC(C3)C1)C2 (stereo partly drawn) [Example 231, (5S,8S)-N-(1-(adamantan-1-yl)ethyl)-5-fluoro-8-hydroxy-5,6,7,8-tetrahydroquinoline-5-carboxamide]	< 1000 nM	< 50 nM
O=C(NC1COc2ccccc2C1)[C@]1(F)CC[C@H](O)c2ncccc21 (stereo partly drawn) [Example 233, (5S,8S)-N-(chroman-3-yl)-5-fluoro-8-hydroxy-5,6,7,8-tetrahydroquinoline-5-carboxamide]	< 1000 nM	101 to 300 nM
C[C@@H](NC(=O)[C@]1(F)CC[C@H](O)c2ncccc21)c1ccc(F)cc1Cl [Example 237, (5S,8S)-N-((R)-1-(2-chloro-4-fluorophenyl)ethyl)-5-fluoro-8-hydroxy-5,6,7,8-tetrahydroquinoline-5-carboxamide]	< 1000 nM	< 50 nM
C[C@H](NC(=O)[C@]1(F)CC[C@H](O)c2ncccc21)c1ccc(F)cc1Cl [Example 239, (5S,8S)-N-((S)-1-(2-chloro-4-fluorophenyl)ethyl)-5-fluoro-8-hydroxy-5,6,7,8-tetrahydroquinoline-5-carboxamide]	< 1000 nM	101 to 300 nM

Other lines, results leading:

IC50 (rat P2X7)	IC50 (human P2X7)	SMILES
< 1000 nM	< 50 nM	O=C(NCc1ncc(Cl)cc1Cl)[C@]1(F)CC[C@H](O)c2ncccc21 [Example 177, (5S,8S)-N-((3,5-dichloropyridin-2-yl)methyl)-5-fluoro-8-hydroxy-5,6,7,8-tetrahydroquinoline-5-carboxamide]
< 1000 nM	< 50 nM	O=C(NCc1ccc(Br)cc1F)[C@]1(F)CC[C@H](O)c2ncccc21 [Example 182, (5S,8S)-N-(4-bromo-2-fluorobenzyl)-5-fluoro-8-hydroxy-5,6,7,8-tetrahydroquinoline-5-carboxamide]
< 1000 nM	< 50 nM	O=C(NCc1ccc(Cl)c(F)c1F)[C@]1(F)CC[C@H](O)c2ncccc21 [Example 183, (5S,8S)-N-(4-chloro-2,3-difluorobenzyl)-5-fluoro-8-hydroxy-5,6,7,8-tetrahydroquinoline-5-carboxamide]
< 1000 nM	< 50 nM	O=C(NCc1c(F)cc(Cl)cc1F)[C@]1(F)CC[C@H](O)c2ncccc21 [Example 184, (5S,8S)-N-(4-chloro-2,6-difluorobenzyl)-5-fluoro-8-hydroxy-5,6,7,8-tetrahydroquinoline-5-carboxamide]
< 1000 nM	< 50 nM	O=C(NCc1ccc(F)c(Cl)c1F)[C@]1(F)CC[C@H](O)c2ncccc21 [Example 185, (5S,8S)-N-(3-chloro-2,4-difluorobenzyl)-5-fluoro-8-hydroxy-5,6,7,8-tetrahydroquinoline-5-carboxamide]
< 1000 nM	< 50 nM	O=C(NCc1cccc(Cl)c1F)[C@]1(F)CC[C@H](O)c2ncccc21 [Example 190, (5S,8S)-N-(3-chloro-2-fluorobenzyl)-5-fluoro-8-hydroxy-5,6,7,8-tetrahydroquinoline-5-carboxamide]
< 1000 nM	< 50 nM	O=C(NCC1(N2CCOCC2)CCCCC1)[C@]1(F)CC[C@H](O)c2ncccc21 [Example 192, (5S,8S)-5-fluoro-8-hydroxy-N-((1-morpholinocyclohexyl)methyl)-5,6,7,8-tetrahydroquinoline-5-carboxamide]
< 1000 nM	< 50 nM	O=C(NCc1c(F)ccc(Cl)c1F)[C@]1(F)CC[C@H](O)c2ncccc21 [Example 193, (5S,8S)-N-(3-chloro-2,6-difluorobenzyl)-5-fluoro-8-hydroxy-5,6,7,8-tetrahydroquinoline-5-carboxamide]
< 1000 nM	< 50 nM	O=C(NCc1ccccc1Cl)[C@]1(F)CC[C@H](O)c2ncccc21 [Example 195, (5S,8S)-N-(2-chlorobenzyl)-5-fluoro-8-hydroxy-5,6,7,8-tetrahydroquinoline-5-carboxamide]
< 1000 nM	50 to 100 nM	O=C(NCc1cc(F)cc(Cl)c1)[C@]1(F)CC[C@H](O)c2ncccc21 [Example 203, (5S,8S)-N-(3-chloro-5-fluorobenzyl)-5-fluoro-8-hydroxy-5,6,7,8-tetrahydroquinoline-5-carboxamide]
< 1000 nM	50 to 100 nM	O=C(NCc1cccc(Cl)c1)[C@]1(F)CC[C@H](O)c2ncccc21 [Example 205, (5S,8S)-N-(3-chlorobenzyl)-5-fluoro-8-hydroxy-5,6,7,8-tetrahydroquinoline-5-carboxamide]
< 1000 nM	101 to 300 nM	O=C(NCc1ccc(Cl)c(F)c1)[C@]1(F)CC[C@H](O)c2ncccc21 [Example 206, (5S,8S)-N-(4-chloro-3-fluorobenzyl)-5-fluoro-8-hydroxy-5,6,7,8-tetrahydroquinoline-5-carboxamide]
< 1000 nM	< 50 nM	O=C(NC1COc2cc(Cl)cc(Cl)c21)[C@]1(F)CC[C@H](O)c2ncccc21 (stereo partly drawn) [Example 229, (5S,8S)-N-(4,6-dichloro-2,3-dihydrobenzofuran-3-yl)-5-fluoro-8-hydroxy-5,6,7,8-tetrahydroquinoline-5-carboxamide]
< 1000 nM	< 50 nM	O=C(NC1CCOc2cc(Cl)cc(Cl)c21)[C@]1(F)CC[C@H](O)c2ncccc21 (stereo partly drawn) [Example 230, (5S,8S)-N-(5,7-dichlorochroman-4-yl)-5-fluoro-8-hydroxy-5,6,7,8-tetrahydroquinoline-5-carboxamide]
< 1000 nM	< 50 nM	O=C(NCC(c1ccc(Cl)cc1)N1CCC(F)(F)CC1)[C@]1(F)CC[C@H](O)c2ncccc21 (stereo partly drawn) [Example 232, (5S,8S)-N-(2-(4-chlorophenyl)-2-(4,4-difluoropiperidin-1-yl)ethyl)-5-fluoro-8-hydroxy-5,6,7,8-tetrahydroquinoline-5-carboxamide]
< 1000 nM	301 to 1000 nM	CC(CNC(=O)[C@]1(F)CC[C@H](O)c2ncccc21)c1ccc(Cl)cc1 (stereo partly drawn) [Example 234, (5S,8S)-N-(2-(4-chlorophenyl)propyl)-5-fluoro-8-hydroxy-5,6,7,8-tetrahydroquinoline-5-carboxamide]
< 1000 nM	< 50 nM	O=C(NC1CC1c1ccc(Cl)cc1Cl)[C@]1(F)CC[C@H](O)c2ncccc21 (stereo partly drawn) [Example 238, (5S,8S)-N-((trans)-2-(2,4-dichlorophenyl)cyclopropyl)-5-fluoro-8-hydroxy-5,6,7,8-tetrahydroquinoline-5-carboxamide]
< 1000 nM	301 to 1000 nM	O=C(NCC1(c2ccc(Cl)cc2Cl)CCOCC1)[C@]1(F)CC[C@H](O)c2ncccc21 [Example 240, (5S,8S)-N-((4-(2,4-dichlorophenyl)tetrahydro-2H-pyran-4-yl)methyl)-5-fluoro-8-hydroxy-5,6,7,8-tetrahydroquinoline-5-carboxamide]
